In PMC5608272 (PLoS ONE, 2017):
Where two headings read alike, the source gives them in different places.

Tests used:
Human cGAS (aa 2–522) = target: T1, Human cGAS (aa 2–522) (Homo sapiens, UniProt Q8N884); assay: cGAS activity mass spectrometry assay (cGAMP production by LC-MS); type: biochemical; details: for Km: other nucleotide fixed: ATP 1 mM, GTP 300 μM, read-out: apparent Km; for effect of metals on cGAS activity: 1 nM cGAS, 1 nM dsDNA, in words
T1 construct: Amino acids 2-522 of human MB21D1 (Uniprot ID: Q8N884); made in house; host or cells: Spodoptera frugiperda Sf-9 (baculovirus)
Procedure: cGAS activity was measured in buffer (10 mM Hepes, 140 mM NaCl, 0.01% Tween-20, 5 mM MgCl2, pH 7.5) containing 1 mM ATP, 0.3 mM GTP, 100 nM ISD DNA (45 bp dsDNA), and 100 nM cGAS in the presence or absence of test compounds. […] The reaction was incubated for 30 minutes at 37°C and stopped with the addition of 50 mM EDTA. […] An earlier version of the assay utilized the same buffer and nucleotide conditions but was conducted in the presence of 1 nM cGAS, 1 nM ISD DNA and carried out for 6 h at 37°C before being processed as described above.
50 μl of H2O was added to each 25 μl cGAS reaction (384 well format). The samples were mixed by briefly vortexing followed by a 10 min, 3000 g centrifugation at room temperature. […] 10 μl of sample was injected on to a 2x30 mm hypercarb column (Thermo Scientific) kept at 60°C with a flow rate of 0.8 ml/min and a loop sweep time of 20 s. Mobile phase A consisted of 10 mM Ammonium Acetate, pH 10, and Mobile phase B consisted of 90:10 (Acetonitrile:Acetone 1:1): 10 mM Ammonium Acetate pH 10 + 0.1% formic acid. […] ATP and GTP had the following optimized parameters: dp 99 ep 10 ce 64 cxp 10. […] The data was processed using Sciex's Multiquant 3.0.

mAb 80–2 = assay: Competition ELISA, mAb 80–2 binding to BSA-cGAMP; design: species or system mouse; details: preincubated 1 hr; ATP, GTP at mM concentrations; in words
Procedure: After washing, plates were developed with substrate, the reaction was stopped with 2 N H2SO4 and OD was read at 450 nm. […] After incubation for 1 hr, plates were washed, incubated with secondary antibody, and developed as described above.

[1] = tested on: dsDNA-induced IFN-beta expression; assay: Cellular cGAS assay: dsDNA-induced IFN-beta expression via luciferase reporter in THP-1 Dual cells; type: cell-based, human
Procedure: (§1) Cellular Assays. THP-1 Dual monocytes cells containing NF-κB-SEAP and IRF-Luc Reporter (InvivoGen cat # thpd-nfis) were plated at 1x10^5 cells/well in U bottom 96 well plates in 100μL RPMI media containing10% FBS. Tested compounds were diluted in 100% DMSO to stock concentration of 30 mM. The TBK1 inhibitor BX-795 was obtained from Sigma-Aldrich (cat#SML0694-5MG) and used as a positive control. Cells were pretreated with DMSO or compounds for 1 hr at room temperature, followed by Lipofectamine™ 2000 (Thermo Fisher cat# 11668027) transfection with salmon sperm DNA (InvivoGen cat# tlrl-sdef) at 100 ng/well. Cells were incubated for 12 hrs at 37 ^◦C in a 5% CO2 incubator followed by centrifugation at 1000 rpm for 5 min. Media was collected and Lucia luciferase was measured using Quanti-Luc substrate (InvivoGen cat# rep-qlc1) according to the manufacturer’s protocol. Viability of cells was assessed using Promega CellTiter Glo luminescent viability assay (Promega cat# G7570) according to the manufacturer’s protocol. All data points were normalized to the salmon sperm DNA-treated wells (without compound) and expressed as percent of signal.

truncated h-cGAS = target: T2, truncated h-cGAS (Homo sapiens, UniProt Q8N884); assay: STD 1H NMR cGAMP competition binding on truncated h-cGAS; details: mixture with 2´,3´-cGAMP, in words
T2 construct: a previously crystalized cGAS construct beginning at residue 161 (cGAS161) (H. sapiens numbering)
Procedure: Nuclear Magnetic Resonance (NMR). All NMR spectra were collected on a Bruker Avance III series 600 MHz spectrometer equipped with a 1.7 mm micro cryoprobe. For fragment screening, the Pfizer fragment library (~3,200 fragments) was screened against 3 μM truncated h-cGAS in 20 mM hepes (pH 7.5) buffer containing 150 mM KCl and 1 mM TCEP, and no DNA. The concentration of each fragment was 300 µM, and each sample contains either five or ten fragments in the mixture. Saturation transfer difference (STD) spectra for each fragment mixture were collected and binders were identified by comparing their STD signals with 1D reference spectra of the fragments in the mixture.

[2] = Chemical stability observed on resynthesis; type: physicochemical; details: upon attempted resynthesis, in words
cGAS [3] = target: T3, cGAS (Homo sapiens, UniProt Q8N884); assay: SPR binding to immobilized cGAS; details: for Kd: absence of activating dsDNA, 4 °C
Procedure: SPR assays. SPR experiments were performed using NTA sensor chips in a BIACORE T200 (GE Healthcare). cGAS was immobilized to a final density ca 5000-10000 RU. Sample-dependent responses were subtracted from channel 1, which had neither Ni or protein immobilized on it. Data were further corrected by subtracting a zero-concentratio blank from all compounds. Compounds were injected for 30-60 s, dissociation was measured for 30-120 s at 60 μL/min, 4 °C. Experiments were performed in buffer contained 20 mM HEPES (pH 7.5), 150 mM KCl, 20 mM MgCl2, 1 mM TCEP and 1% DMSO. Samples were injected with a top concentration, followed by 2-fold dilutions, and a final blank over 12 injection points. […] Dissociation equilibrium constants (KD) were determined using a binary association model (T200 BIA Eval software).
Target sequence in this assay (Q8N884 whole entry): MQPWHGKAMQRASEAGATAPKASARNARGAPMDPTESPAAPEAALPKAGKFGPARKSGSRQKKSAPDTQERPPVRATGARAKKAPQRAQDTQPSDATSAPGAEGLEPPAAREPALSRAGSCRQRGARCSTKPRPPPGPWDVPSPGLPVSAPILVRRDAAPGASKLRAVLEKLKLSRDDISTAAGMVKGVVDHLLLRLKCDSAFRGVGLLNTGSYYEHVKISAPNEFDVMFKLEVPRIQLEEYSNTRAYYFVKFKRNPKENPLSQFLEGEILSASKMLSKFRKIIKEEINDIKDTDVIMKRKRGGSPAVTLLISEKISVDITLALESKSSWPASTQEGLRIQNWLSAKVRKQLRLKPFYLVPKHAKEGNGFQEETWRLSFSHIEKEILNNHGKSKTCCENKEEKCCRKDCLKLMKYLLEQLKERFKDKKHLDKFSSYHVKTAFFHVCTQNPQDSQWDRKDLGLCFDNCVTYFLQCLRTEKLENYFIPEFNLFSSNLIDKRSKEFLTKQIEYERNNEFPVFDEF

cGAS [4] = target: T3, cGAS; assay: Cy5-cGAMP fluorescence polarization assay of cGAS activity; type: biochemical; design: Amino acids 2-522 of human MB21D1 (Uniprot ID: Q8N884); made in house; host or cells: Spodoptera frugiperda Sf-9 (baculovirus)
Target sequence in this assay (Q8N884 2-522): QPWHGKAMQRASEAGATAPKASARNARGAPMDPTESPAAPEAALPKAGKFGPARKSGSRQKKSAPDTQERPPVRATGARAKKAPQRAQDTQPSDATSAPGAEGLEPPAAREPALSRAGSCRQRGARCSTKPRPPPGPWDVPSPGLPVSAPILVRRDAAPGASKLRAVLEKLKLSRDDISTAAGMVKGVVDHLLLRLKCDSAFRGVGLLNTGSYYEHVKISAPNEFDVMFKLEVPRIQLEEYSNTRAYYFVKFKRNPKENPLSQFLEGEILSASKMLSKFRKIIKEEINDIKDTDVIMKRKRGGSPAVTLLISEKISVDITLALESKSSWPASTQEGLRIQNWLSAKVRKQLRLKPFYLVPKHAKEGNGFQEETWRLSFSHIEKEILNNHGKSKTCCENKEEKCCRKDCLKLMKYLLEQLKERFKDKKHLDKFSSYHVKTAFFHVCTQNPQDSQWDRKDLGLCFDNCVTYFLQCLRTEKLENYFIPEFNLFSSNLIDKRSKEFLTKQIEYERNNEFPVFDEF

THP-1 Dual cells = assay: Cell viability, CellTiter Glo, THP-1 Dual cells; type: cell-based, human; details: in words
Procedure: as §1

[5] = 1 mM ATP, 0.3 mM GTP, 100 nM ISD DNA, 100 nM cGAS, read-out: MS IC50
[6] = 1 mM ATP, 0.3 mM GTP, 100 nM ISD DNA, 100 nM cGAS, read-out: FP IC50

T1 sequence (Q8N884 2-522): as above
T2 sequence (Q8N884 161-522 limits assumed): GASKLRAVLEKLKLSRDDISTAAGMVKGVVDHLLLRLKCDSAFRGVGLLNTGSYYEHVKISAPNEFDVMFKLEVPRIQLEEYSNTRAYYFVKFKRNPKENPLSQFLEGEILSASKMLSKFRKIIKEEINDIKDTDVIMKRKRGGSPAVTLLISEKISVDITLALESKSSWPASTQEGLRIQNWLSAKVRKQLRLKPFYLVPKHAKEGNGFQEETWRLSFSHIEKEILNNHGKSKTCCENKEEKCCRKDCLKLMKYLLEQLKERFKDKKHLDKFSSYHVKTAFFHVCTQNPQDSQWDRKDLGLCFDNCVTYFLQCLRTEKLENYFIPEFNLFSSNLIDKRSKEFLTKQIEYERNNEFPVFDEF

Nc1ncnc2c1ncn2[C@@H]1O[C@H](COP(=O)(O)OP(=O)(O)OP(=O)(O)O)[C@@H](O)[C@H]1O [ATP]
Km (Human cGAS (aa 2–522)): 35 µM | inhibition of mAb 80–2 binding to BSA-cGAMP (mAb 80–2): neither ATP nor GTP at mM concentrations inhibited the binding

O=C(NCCCNc1nc(Nc2cccc(NC(=O)N3CCCC3)c2)ncc1I)c1cccs1 [BX-395, reference compound]
IC50 ([1]; Homo sapiens, THP1-Dual, positive control, read-out: IC50, inhibition of IFN-β induction): ~0.06 µM

Oc1cc(-c2ccccc2)nc2nnnn12 [Compound 15]
competition with 2´,3´-cGAMP for interacting with cGAS (1H STD) (truncated h-cGAS): out competed 2´,3´-cGAMP | chemical stability [2]: not chemically stable and readily isomerizes via an open-ring azidopyrimidine | Kd (cGAS [3]): 171 µM

CNC(=O)c1cnn2c(=O)cc(-c3ccccc3)[nH]c12 [Compound 16, N-methyl-7-oxo-5-phenyl-4,7-dihydropyrazolo[1,5-a]pyrimidine-3-carboxamide]
IC50 (Human cGAS (aa 2–522); [5]): 69 µM | IC50 (cGAS [4]; [6]): 125 µM | IC50 (cGAS [4]; text summary of Fig 3, spans MS and FP assay values, read-out: IC50, inhibition of cGAS functional activity): 69 to 125 µM | Kd (cGAS [3]): 78 µM

O=C(NCCO)c1cnn2c(=O)cc(-c3ccccc3)[nH]c12 [Compound 17, N-(2-hydroxyethyl)-7-oxo-5-phenyl-4,7-dihydropyrazolo[1,5-a]pyrimidine-3-carboxamide]
IC50 (Human cGAS (aa 2–522); [5]): 19 µM | IC50 (cGAS [4]; [6]): 15.1 µM | Kd (cGAS [3]): 12.5 µM

O=C(O)CNC(=O)c1cnn2c(=O)cc(-c3ccccc3)[nH]c12 [Compound 18, (7-oxo-5-phenyl-4,7-dihydropyrazolo[1,5-a]pyrimidine-3-carbonyl)glycine]
IC50 (Human cGAS (aa 2–522)): 21 µM | IC50 (cGAS [4]): 10.6 µM | Kd (cGAS [3]): 6.7 µM

C[C@@H](CO)NC(=O)c1cnn2c(=O)cc(-c3ccccc3)[nH]c12 [Compound 19, (S)-N-(1-hydroxypropan-2-yl)-7-oxo-5-phenyl-4,7-dihydropyrazolo[1,5-a]pyrimidine-3-carboxamide]
IC50 (Human cGAS (aa 2–522); [5]): 8.1 µM | IC50 (cGAS [4]; [6]): 17.5 µM | Kd (cGAS [3]): 2.7 µM

Nc1nc2c(ncn2[C@@H]2O[C@H](COP(=O)(O)OP(=O)(O)OP(=O)(O)O)[C@@H](O)[C@H]2O)c(=O)[nH]1 [GTP]
Km (Human cGAS (aa 2–522)): 30 µM | inhibition of mAb 80–2 binding to BSA-cGAMP (mAb 80–2): neither ATP nor GTP at mM concentrations inhibited the binding

O=C(N[C@H]1CCCC[C@H]1C(=O)O)c1cnn2c(=O)cc(-c3ccccc3)[nH]c12 [PF-06928215, (1R,2S)-2-(7-oxo-5-phenyl-4,7-dihydropyrazolo[1,5-a]pyrimidine-3 carboxamido) cyclohexane-1-carboxylic acid]
effect on cell viability (THP-1 Dual cells): minimal effect on cell viability | activity on dsDNA-induced IFN-beta expression ([1]; salmon sperm DNA 12 hrs, in words): no activity | off rate kinetics (cGAS [3]; SPR sensorgram, in words): longer off rate kinetics than any other compound in this series

[Cu][Br] [copper, CuBr]
effect of metals on cGAS activity (Human cGAS (aa 2–522)): very sensitive to inhibition

CC(=O)[O-].CC(=O)[O-].[Pd+2] [palladium, Pd(OAc)2]
effect of metals on cGAS activity (Human cGAS (aa 2–522)): very sensitive to inhibition

[Cl-].[Cl-].[Zn+2] [zinc, ZnCl2]
effect of metals on cGAS activity (Human cGAS (aa 2–522)): increased enzymatic activity
